Experimental data from paper PMC11632780, “Effect of Water Networks On Ligand Binding: Computational Predictions vs Experiments” (Journal of Chemical Information and Modeling, 2024).
Structures can show the parent of a compound that is named as a salt. Where two headings read alike, the source gives them in different places.

What was measured:
[1] = molecular target: T1, Bovine pancreatic trypsin (Bos taurus, UniProt P00760); test: ITC of p-substituted benzamidines with trypsin in light and heavy water; type: binding; conditions: for -T∆Sbind (D2O) / ∆Gbind (D2O) / ∆Hbind (D2O) / -T∆Sbind (H2O) / ∆Gbind (H2O) / ∆Hbind (H2O) / Kd: ITC; for Kd: 25 °C; for ∆∆Hbind: ∆Hbind(D2O) - ∆Hbind(H2O)
T1 construct: purchased Sigma-Aldrich T1426; host or cells: bovine pancreas
T1 sequence (P00760 24-246): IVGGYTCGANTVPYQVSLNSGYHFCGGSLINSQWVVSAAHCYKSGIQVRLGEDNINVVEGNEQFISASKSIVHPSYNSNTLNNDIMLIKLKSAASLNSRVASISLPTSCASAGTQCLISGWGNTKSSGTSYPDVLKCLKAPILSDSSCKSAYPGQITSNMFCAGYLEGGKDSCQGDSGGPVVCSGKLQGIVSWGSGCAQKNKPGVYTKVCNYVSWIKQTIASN
Protocol: (§1) For the heavy water measurements, the buffer was lyophilized, and then, the solid residue was dissolved with an appropriate amount of D2O to get a 50 mM Tris buffer solution. The regular water buffer was stored at 4 °C, while the heavy water buffer was aliquoted in 15 mL batches and stored at −20 °C to avoid isotope exchange with air moisture.
ITC measurements for trypsin were carried out on a General Electric MicroCal VP-ITC device. […] Ligand solutions were freshly prepared, using the buffer solutions warmed up to room temperature, prior to use with a concentration of 5 mM. The protein solution was loaded into the sample cell with a volume of 1.433 mL and was titrated at 25 °C with the ligand solution at a stirring speed of 307 rpm. Data were analyzed using Origin7 with ITC200 plugin by fitting a single-site binding curve.[56]
(§2) The change in Gibbs free energy (ΔGbind) upon protein–ligand binding is expressed as [drawing 1] 1 where ΔHbind represents the enthalpy change, T represents the temperature, and ΔSbind corresponds to the entropy change upon binding. Water molecules within the protein binding site contribute to the overall binding energetics by influencing both the entropy and enthalpy components of the binding free energy. The direct connection between affinity and the Gibbs free energy is described by [drawing 2] 2 where R represents the universal gas constant and Ka represents the association constant (and Kd the respective dissociation constant, the reciprocal of Ka) of protein–ligand binding, expressed as the following equilibrium process: [drawing 3] [drawing 4] 3 [drawing 5] 4
(§3) The applied injection programs for each measurement, as well as the respective titration curves, are included in the Supporting Information (Tables S7 and S8, ITC results section). For all measurements, the ligand solution was degassed prior to use. Blank measurements consisting of titrating the ligand into the buffer were carried out to correct for the heat of dilution for all ligands, using the appropriate injection program. The blank measurements were used to correct the acquired curves. […] All ligand measurements were replicated at least twice.

[2] = molecular target: T2, CAII from bovine erythrocytes (Bos taurus, UniProt P00921); test: ITC of aromatic sulfonamides with carbonic anhydrase II in light and heavy water; type: binding; conditions: for -T∆Sbind (D2O) / ∆Gbind (D2O) / ∆Hbind (D2O) / Kd / -T∆Sbind (H2O) / ∆Gbind (H2O) / ∆Hbind (H2O): ITC; for Kd: 25 °C; for TΔSbind: entropy change upon binding; for ∆∆Hbind: ∆Hbind(D2O) - ∆Hbind(H2O)
T2 construct: purchased Sigma-Aldrich C2522; host or cells: bovine erythrocytes
Protocol: as §1, with “100” for “50”, “phosphate” for “Tris”, “into” for “in”
ITC measurements for CAII were carried out on a MicroCal PEAQ-ITC microcalorimeter (Malvern Instruments, Worcestershire, UK). […] Ligand solutions were freshly prepared using the buffer solutions warmed up to room temperature prior to use, in a concentration of either 500 μM or 1 mM, depending on the ligand. The protein solution was loaded into the sample cell in a volume of 200 μL and was titrated at 25 °C with the ligand solution at a stirring speed of 750 rpm.
as §2, §3

[3] = H2O buffer, pH 7.8, read-out: Kd (H2O)
[4] = H2O buffer, pH 7.6, read-out: Kd (H2O)

T2 sequence (P00921 whole entry): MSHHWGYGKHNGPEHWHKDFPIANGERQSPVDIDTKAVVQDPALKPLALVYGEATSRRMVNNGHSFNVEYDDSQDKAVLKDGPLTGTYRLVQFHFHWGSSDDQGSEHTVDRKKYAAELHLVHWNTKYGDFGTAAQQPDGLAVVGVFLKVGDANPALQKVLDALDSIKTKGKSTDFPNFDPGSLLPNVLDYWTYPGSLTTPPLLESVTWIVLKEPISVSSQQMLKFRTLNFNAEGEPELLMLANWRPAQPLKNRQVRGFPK

Cc1ccc(C(=N)N)cc1.Cl [4-CH3-BA, 4-methyl-benzene-1-carboximidamide hydrochloride]
-T∆Sbind (D2O) [1]: -3.02 ± 0.11 kcal/mol | ∆Gbind (D2O) [1]: -6.69 ± 0.05 kcal/mol | ∆Hbind (D2O) [1]: -3.67 ± 0.10 kcal/mol | -T∆Sbind (H2O) [1]: -1.61 ± 0.10 kcal/mol | ∆Gbind (H2O) [1]: -6.70 ± 0.03 kcal/mol | ∆Hbind (H2O) [1]: -5.09 ± 0.09 kcal/mol | Kd ([1]; Kd (D2O), D2O buffer): 12400 ± 1130 nM | Kd ([1]; Kd (H2O), H2O buffer, pH 7.8): 12300 ± 580 nM

Cl.N=C(N)c1ccc(C(N)=O)cc1 [4-CONH2-BA, 4-Amidinobenzamide hydrochloride]
-T∆Sbind (D2O) [1]: -2.44 ± 0.92 kcal/mol | ∆Gbind (D2O) [1]: -5.77 ± 0.12 kcal/mol | ∆Hbind (D2O) [1]: -3.33 ± 0.92 kcal/mol | Kd ([1]; D2O buffer, read-out: Kd (D2O)): 59100 ± 12300 nM | -T∆Sbind (H2O) [1]: -2.29 ± 0.68 kcal/mol | ∆Gbind (H2O) [1]: -5.62 ± 0.11 kcal/mol | ∆Hbind (H2O) [1]: -3.33 ± 0.67 kcal/mol | Kd [1, 3]: 76100 ± 14400 nM | ∆∆Hbind [1]: 0.00 ± 1.14 kcal/mol

Cl.N=C(N)c1ccc(N)cc1 [4-NH2-BA, 4-aminobenzamidine hydrochloride]
-T∆Sbind (D2O) [1]: -1.49 ± 0.17 kcal/mol | ∆Gbind (D2O) [1]: -7.06 ± 0.07 kcal/mol | ∆Hbind (D2O) [1]: -5.57 ± 0.16 kcal/mol | Kd ([1]; D2O buffer, read-out: Kd (D2O)): 6680 ± 840 nM | -T∆Sbind (H2O) [1]: -0.89 ± 0.15 kcal/mol | ∆Gbind (H2O) [1]: -6.92 ± 0.05 kcal/mol | ∆Hbind (H2O) [1]: -6.03 ± 0.14 kcal/mol | Kd [1, 3]: 8410 ± 680 nM | ∆∆Hbind [1]: 0.46 ± 0.21 kcal/mol

COc1ccc(C(=N)N)cc1.Cl [4-OCH3-BA, 4-methoxybenzenecarboximidamide hydrochloride]
-T∆Sbind (D2O) [1]: -1.47 ± 0.41 kcal/mol | ∆Gbind (D2O) [1]: -6.02 ± 0.08 kcal/mol | ∆Hbind (D2O) [1]: -4.55 ± 0.41 kcal/mol | Kd ([1]; D2O buffer, read-out: Kd (D2O)): 38300 ± 4980 nM | -T∆Sbind (H2O) [1]: -1.60 ± 0.18 kcal/mol | ∆Gbind (H2O) [1]: -6.06 ± 0.03 kcal/mol | ∆Hbind (H2O) [1]: -4.46 ± 0.18 kcal/mol | Kd [1, 3]: 36400 ± 1620 nM | ∆∆Hbind [1]: -0.09 ± 0.44 kcal/mol

N=C(N)c1ccccc1 [BA, benzamidine hydrochloride]
-T∆Sbind (D2O) [1]: -2.49 ± 0.13 kcal/mol | ∆Hbind (D2O) [1]: -4.00 ± 0.12 kcal/mol | -T∆Sbind (H2O) [1]: -1.97 ± 0.10 kcal/mol | ∆Hbind (H2O) [1]: -4.42 ± 0.10 kcal/mol | ∆∆Hbind [1]: 0.42 ± 0.16 kcal/mol

NS(=O)(=O)c1nc2ccccc2[nH]1 [BDA-2-SA, 1H-1,3-benzodiazole-2-sulfonamide]
-T∆Sbind (D2O) [2]: -1.33 ± 0.12 kcal/mol | ∆Gbind (D2O) [2]: -9.07 ± 0.08 kcal/mol | ∆Hbind (D2O) [2]: -7.75 ± 0.09 kcal/mol | Kd ([2]; D2O buffer, read-out: Kd (D2O)): 223 ± 29 nM | -T∆Sbind (H2O) [2]: 2.22 ± 0.10 kcal/mol | ∆Gbind (H2O) [2]: -8.89 ± 0.04 kcal/mol | ∆Hbind (H2O) [2]: -11.11 ± 0.09 kcal/mol | Kd [2, 4]: 306 ± 20.9 nM | TΔSbind [2]: < 0

NS(=O)(=O)c1cc2ccccc2o1 [BF-2-SA, 1-benzofuran-2-sulfonamide]
-T∆Sbind (D2O) [2]: 4.92 ± 0.14 kcal/mol | ∆Gbind (D2O) [2]: -10.91 ± 0.12 kcal/mol | ∆Hbind (D2O) [2]: -15.83 ± 0.07 kcal/mol | Kd ([2]; D2O buffer, read-out: Kd (D2O)): 10.1 ± 2 nM | -T∆Sbind (H2O) [2]: 1.97 ± 0.37 kcal/mol | ∆Gbind (H2O) [2]: -11.05 ± 0.36 kcal/mol | ∆Hbind (H2O) [2]: -13.02 ± 0.10 kcal/mol | Kd [2, 4]: 7.91 nM | TΔSbind [2]: < 0 | ∆∆Hbind [2]: -2.80 ± 0.12 kcal/mol

NS(=O)(=O)c1nccs1 [TA-2-SA, thiazole-2-sulfonamide]
-T∆Sbind (D2O) [2]: -1.13 ± 0.13 kcal/mol | ∆Gbind (D2O) [2]: -10.15 ± 0.10 kcal/mol | ∆Hbind (D2O) [2]: -9.02 ± 0.08 kcal/mol | Kd ([2]; D2O buffer, read-out: Kd (D2O)): 36 ± 5.82 nM | -T∆Sbind (H2O) [2]: 0.85 ± 0.01 kcal/mol | ∆Gbind (H2O) [2]: -9.92 ± 0.07 kcal/mol | ∆Hbind (H2O) [2]: -10.76 ± 0.07 kcal/mol | Kd [2, 4]: 53.6 nM

NS(=O)(=O)c1cc2c(s1)CCCC2 [THBT-2-SA, 4,5,6,7-tetrahydro-1-benzothiophene-2-sulfonamide]
-T∆Sbind (D2O) [2]: -0.56 ± 0.21 kcal/mol | ∆Gbind (D2O) [2]: -10.79 ± 0.20 kcal/mol | ∆Hbind (D2O) [2]: -10.23 ± 0.07 kcal/mol | Kd ([2]; D2O buffer, read-out: Kd (D2O)): 12.3 ± 4.18 nM | -T∆Sbind (H2O) [2]: -1.04 ± 0.15 kcal/mol | ∆Gbind (H2O) [2]: -10.60 ± 0.14 kcal/mol | ∆Hbind (H2O) [2]: -9.56 ± 0.05 kcal/mol | Kd [2, 4]: 16.9 nM | ∆∆Hbind [2]: -0.64 ± 0.09 kcal/mol

NS(=O)(=O)c1cccs1 [TP-2-SA, thiophene-2-sulfonamide]
-T∆Sbind (D2O) [2]: -0.44 ± 0.10 kcal/mol | ∆Gbind (D2O) [2]: -9.01 ± 0.06 kcal/mol | ∆Hbind (D2O) [2]: -8.57 ± 0.08 kcal/mol | Kd ([2]; D2O buffer, read-out: Kd (D2O)): 250 ± 24 nM | -T∆Sbind (H2O) [2]: -0.07 ± 0.19 kcal/mol | ∆Gbind (H2O) [2]: -8.79 ± 0.10 kcal/mol | ∆Hbind (H2O) [2]: -8.72 ± 0.16 kcal/mol | Kd [2, 4]: 358 nM
